Patent US20180354909A1, “SUBSTITUTED BENZIMIDAZOLIUM, PYRIDO-IMIDAZOLIUM, OR PYRAZINO-IMIDAZOLIUM COMPOUNDS AS CHEMOTHERAPEUTICS” (The Board of Regents of the University of Texas System, priority 2015, published 2018)

Test system: Mut6
Experiment: Cytotox testing (CellTiter-Glo ATP assay) in Mut6 cells
Type: cell-based, mouse
Details: Mus musculus, 96 h, Mut6 cells, 4 days, CellTiter-Glo; read-out: Activity in Mut6 [EC50]
Experimental: Mut6 tumor cells were cultured in DMEM/F12 media supplemented by EGF (10 ng/mL), basic FGF (10 ng/mL), heparin (4 ug/mL), glucose (total 21 mM), NaHCO3 (113 μg/mL), Hepes (119 μg/mL), glutamine (2 mM), sodium pyruvate (1 mM), N2 supplement (ThermoFisher Gibco 17502-048, 100×, at 100-fold dilution), B27 supplement (ThermoFisher Gibco 12587-010, 50×, at 100-fold dilution), and penicillin/streptomycin (ThermoFisher, final 1%). Cells were maintained in Ultra-low attachment plate (Corning) as sphere-forming cells. For ATP assays and protein/RNA isolation, cells were plated into 96-well plates or 6-well plated that were coated with poly-lysine (Sigma P6407, 10 μg/mL in PBS, 4 hr at 37° C.) and laminin (ThermoFisher 23017015, ˜5 mg/L in PBS, overnight at 37° C.). MEFs and Astrocytes were cultured in DMEM supplemented with 10% FBS and 1% Penicillin/Streptomycin.
2,000 cells were plated into each well of 96-well plates. About 3 hours later, cells were treated by 12M11, at 800-fold dilution (4 mM stock was diluted into 5 μM final concentration). […] CellTiter-Glo assay (Promega) was performed according to manufacturer's instructions, by adding 20 μL of reagent into each well. Luminescence signal was detected by the PolarStar plate reader (BMG Labtech). Experiments were performed in quadruplicate, and results are presented with mean average −/+ standard deviation. EC505 were calculated by GraphPad Prism6 software.
The compounds described herein were tested using a cell-based cytotoxicity assay against neuronal stem cells in Mut6, which is a mouse glioblastoma model cell line.

| Compound | EC50 |
| --- | --- |
| CCc1n(CC(=O)O[C@H]2C[C@@H](C)CC[C@@H]2C(C)C)c2ccccc2[n+]1C | 100 to 1000 nM |
| CCc1n(CC(=O)OC(C)(C)C)c2ccccc2[n+]1C | > 5000 nM |
| CC(C)[C@@H]1CC[C@@H](C)CC1OC(=O)Cn1c(-c2ccc(OC(=O)CCCCC3SC[C@H]4NC(=O)N[C@@H]34)cc2)[n+](C)c2ccccc21 (stereo partly shown) | 1000 to 5000 nM |
| C#CCOc1ccc(-c2n(CC(=O)OC3C[C@H](C)CC[C@H]3C(C)C)c3ccccc3[n+]2C)cc1N=[N+]=[N-] (stereo partly shown) | 100 to 1000 nM |
| C#CCN(CC(=O)Oc1ccc(-c2n(CC(=O)OC3C[C@H](C)CC[C@H]3C(C)C)c3ccccc3[n+]2C)cc1)Cc1ccc(C2(C(F)(F)F)N=N2)cc1 (stereo partly shown) | 1000 to 5000 nM |
| CCc1n(CC(=O)OC2C[C@H](C)CC[C@H]2C(C)C)c2ccccc2[n+]1C (stereo partly shown) | < 100 nM |
| CCc1n([C@H](C)C(=O)OC2C[C@H](C)CC[C@H]2C(C)C)c2ccccc2[n+]1C (stereo partly shown) | < 100 nM |
| CCc1n([C@@H](C)C(=O)OC2C[C@H](C)CC[C@H]2C(C)C)c2ccccc2[n+]1C (stereo partly shown) | < 100 nM |
| CCc1n([C@H](C)C(=O)OC2C[C@@H](C)CC[C@@H]2C(C)C)c2ccccc2[n+]1C (stereo partly shown) | < 100 nM |
| CCc1n([C@@H](C(=O)OC2C[C@H](C)CC[C@H]2C(C)C)C(C)(C)C)c2ccccc2[n+]1C (stereo partly shown) | 100 to 1000 nM |
| CCc1n([C@@H](C(=O)OC2C[C@H](C)CC[C@H]2C(C)C)C2CC2)c2ccccc2[n+]1C (stereo partly shown) | < 100 nM |
| CCc1n([C@@H](C(=O)OC2C[C@H](C)CC[C@H]2C(C)C)C2CCCC2)c2ccccc2[n+]1C (stereo partly shown) | < 100 nM |
| CCc1n([C@H](Cc2ccccc2)C(=O)OC2C[C@H](C)CC[C@H]2C(C)C)c2ccccc2[n+]1C (stereo partly shown) | 100 to 1000 nM |
| CCc1n([C@H](Cc2ccc(C)cc2)C(=O)OC2C[C@H](C)CC[C@H]2C(C)C)c2ccccc2[n+]1C (stereo partly shown) | < 100 nM |
| CCc1n([C@H](Cc2ccc(O)cc2)C(=O)OC2C[C@H](C)CC[C@H]2C(C)C)c2ccccc2[n+]1C (stereo partly shown) | 1000 to 5000 nM |
| COc1ccc(-c2n([C@H](C)C(=O)OC3C[C@H](C)CC[C@H]3C(C)C)c3ccccc3[n+]2C)cc1 (stereo partly shown) | < 100 nM |
| CC(C)[C@@H]1CC[C@@H](C)CC1OC(=O)[C@@H](C)n1c(-c2ccc(N(C)C)cc2)[n+](C)c2ccccc21 (stereo partly shown) | < 100 nM |
| CC(C)[C@@H]1CC[C@@H](C)CC1OC(=O)[C@@H](C)n1c(-c2ccc(C(F)(F)F)cc2)[n+](C)c2ccccc21 (stereo partly shown) | 100 to 1000 nM |
| COc1ccc(-c2n([C@@H](C(=O)OC3C[C@H](C)CC[C@H]3C(C)C)C3CC3)c3ccccc3[n+]2C)cc1 (stereo partly shown) | < 100 nM |
| CC(C)[C@@H]1CC[C@@H](C)CC1OC(=O)[C@@H](C1CC1)n1c(-c2ccc(N(C)C)cc2)[n+](C)c2ccccc21 (stereo partly shown) | < 100 nM |
| CC(C)[C@@H]1CC[C@@H](C)CC1OC(=O)[C@@H](C1CC1)n1c(-c2ccc(C(F)(F)F)cc2)[n+](C)c2ccccc21 (stereo partly shown) | 100 to 1000 nM |
| CCc1n(CC(=O)OC2C[C@H](C)CC[C@H]2C(C)C)c2ccc(Br)cc2[n+]1C (stereo partly shown) | 100 to 1000 nM |

| Compound | EC50 |
| --- | --- |
| CCc1n(CC(=O)OC2C[C@H](C)CC[C@H]2C(C)C)c2cc(Br)ccc2[n+]1C (stereo partly shown) | 100 to 1000 nM |
| CCc1n(CC(=O)OC2C[C@H](C)CC[C@H]2C(C)C)c2ccc(Cl)cc2[n+]1C (stereo partly shown) | 100 to 1000 nM |
| CCc1n(CC(=O)OC2C[C@H](C)CC[C@H]2C(C)C)c2cc(Cl)ccc2[n+]1C (stereo partly shown) | 100 to 1000 nM |
| CCc1n(CC(=O)OC2C[C@H](C)CC[C@H]2C(C)C)c2ccc(F)cc2[n+]1C (stereo partly shown) | 100 to 1000 nM |
| CCc1n(CC(=O)OC2C[C@H](C)CC[C@H]2C(C)C)c2cc(F)ccc2[n+]1C (stereo partly shown) | < 100 nM |
| CCc1n(CC(=O)OC2C[C@H](C)CC[C@H]2C(C)C)c2ccc(C(F)(F)F)cc2[n+]1C (stereo partly shown) | 1000 to 5000 nM |
| CCc1n(CC(=O)OC2C[C@H](C)CC[C@H]2C(C)C)c2cc(C(F)(F)F)ccc2[n+]1C (stereo partly shown) | 1000 to 5000 nM |
| CCc1n(CC(=O)OC2C[C@H](C)CC[C@H]2C(C)C)c2ccc(C#N)cc2[n+]1C (stereo partly shown) | 1000 to 5000 nM |
| CCc1n(CC(=O)OC2C[C@H](C)CC[C@H]2C(C)C)c2cc(C#N)ccc2[n+]1C (stereo partly shown) | 1000 to 5000 nM |
| CCc1n(CC(=O)OC2C[C@H](C)CC[C@H]2C(C)C)c2ccc([N+](=O)[O-])cc2[n+]1C (stereo partly shown) | 1000 to 5000 nM |
| CCc1n(CC(=O)OC2C[C@H](C)CC[C@H]2C(C)C)c2cc([N+](=O)[O-])ccc2[n+]1C (stereo partly shown) | 1000 to 5000 nM |
| CCN(CC)c1ccc(-c2n([C@H](C)C(=O)OC3C[C@H](C)CC[C@H]3C(C)C)c3ccccc3[n+]2C)cc1 (stereo partly shown) | < 100 nM |
| CCN(CC)c1ccc(-c2n([C@@H](C(=O)OC3C[C@H](C)CC[C@H]3C(C)C)C3CC3)c3ccccc3[n+]2C)cc1 (stereo partly shown) | < 100 nM |
| CC(C)[C@@H]1CC[C@@H](C)CC1OC(=O)[C@@H](C)n1c(-c2ccc(N(C)C)c(C(F)(F)F)c2)[n+](C)c2ccccc21 (stereo partly shown) | < 100 nM |
| CC(C)[C@@H]1CC[C@@H](C)CC1OC(=O)[C@@H](C1CC1)n1c(-c2ccc(N(C)C)c(C(F)(F)F)c2)[n+](C)c2ccccc21 (stereo partly shown) | 100 to 1000 nM |
| Cc1cc(-c2n([C@H](C)C(=O)OC3C[C@H](C)CC[C@H]3C(C)C)c3ccccc3[n+]2C)ccc1N(C)C (stereo partly shown) | < 100 nM |
| Cc1cc(-c2n([C@@H](C(=O)OC3C[C@H](C)CC[C@H]3C(C)C)C3CC3)c3ccccc3[n+]2C)ccc1N(C)C (stereo partly shown) | < 100 nM |
| CC(C)[C@@H]1CC[C@@H](C)CC1OC(=O)[C@@H](C)n1c(-c2ccc(N(C3CC3)C3CC3)cc2)[n+](C)c2ccccc21 (stereo partly shown) | < 100 nM |
| CCCCN(CCCC)c1ccc(-c2n([C@H](C)C(=O)OC3C[C@H](C)CC[C@H]3C(C)C)c3ccccc3[n+]2C)cc1 (stereo partly shown) | < 100 nM |
| CC(C)[C@@H]1CC[C@@H](C)CC1OC(=O)[C@@H](C1CC1)n1c(-c2ccc(N(C3CC3)C3CC3)cc2)[n+](C)c2ccccc21 (stereo partly shown) | < 100 nM |
| CCCCN(CCCC)c1ccc(-c2n([C@@H](C(=O)OC3C[C@H](C)CC[C@H]3C(C)C)C3CC3)c3ccccc3[n+]2C)cc1 (stereo partly shown) | < 100 nM |
| CCc1n(CC(=O)OC2C[C@H](C)CC[C@H]2C(C)C)c2ccncc2[n+]1C (stereo partly shown) | 100 to 1000 nM |

| Compound | EC50 |
| --- | --- |
| CCc1n(CC(=O)OC2C[C@H](C)CC[C@H]2C(C)C)c2ncccc2[n+]1C (stereo partly shown) | 100 to 1000 nM |
| CCc1n(CC(=O)OC2C[C@H](C)CC[C@H]2C(C)C)c2cccnc2[n+]1C (stereo partly shown) | 100 to 1000 nM |
| CCc1n(CC(=O)OC2C[C@H](C)CC[C@H]2C(C)C)c2cc(OC)ccc2[n+]1C (stereo partly shown) | < 100 nM |
| CCc1n(CC(=O)OC2C[C@H](C)CC[C@H]2C(C)C)c2ccc(OC)cc2[n+]1C (stereo partly shown) | < 100 nM |
| CCc1n(CC(=O)OC2C[C@H](C)CC[C@H]2C(C)C)c2cc(C)ccc2[n+]1C (stereo partly shown) | < 100 nM |
| CC[n+]1c(-c2ccc(N(C)C)cc2)n(CC(=O)OC2C[C@H](C)CC[C@H]2C(C)C)c2ccccc21 (stereo partly shown) | < 100 nM |
| C#CC[n+]1c(-c2ccc(N(C)C)cc2)n(CC(=O)OC2C[C@H](C)CC[C@H]2C(C)C)c2ccccc21 (stereo partly shown) | < 100 nM |
| C=CC[n+]1c(-c2ccc(N(C)C)cc2)n(CC(=O)OC2C[C@H](C)CC[C@H]2C(C)C)c2ccccc21 (stereo partly shown) | < 100 nM |
| CC(C)[C@@H]1CC[C@@H](C)CC1OC(=O)Cn1c(-c2ccc(N(C)C)cc2)[n+](Cc2ccccc2)c2ccccc21 (stereo partly shown) | < 100 nM |
| CC(C)[C@@H]1CC[C@@H](C)CC1OC(=O)Cn1c(-c2ccc(N(C)C)cc2)[n+](CC2CC2)c2ccccc21 (stereo partly shown) | < 100 nM |
| CC(C)[C@@H]1CC[C@@H](C)CC1OC(=O)Cn1c(-c2ccc(Cl)cc2)[n+](C)c2ccccc21 (stereo partly shown) | 100 to 1000 nM |
| CC(C)[C@@H]1CC[C@@H](C)CC1OC(=O)Cn1c(-c2ccc(Cl)c(Cl)c2)[n+](C)c2ccccc21 (stereo partly shown) | 100 to 1000 nM |
| CC(C)[C@@H]1CC[C@@H](C)CC1OC(=O)Cn1c(-c2ccc(F)cc2)[n+](C)c2ccccc21 (stereo partly shown) | 100 to 1000 nM |
| CC(C)[C@@H]1CC[C@@H](C)CC1OC(=O)Cn1c(-c2ccc(C(F)(F)F)cc2)[n+](C)c2ccccc21 (stereo partly shown) | 100 to 1000 nM |
| CC(C)[C@@H]1CC[C@@H](C)CC1OC(=O)Cn1c(-c2ccc(Br)cc2)[n+](C)c2ccccc21 (stereo partly shown) | 100 to 1000 nM |
| CC(C)[C@@H]1CC[C@@H](C)CC1OC(=O)Cn1c(-c2cccc(Cl)c2)[n+](C)c2ccccc21 (stereo partly shown) | 100 to 1000 nM |
| CC(C)[C@@H]1CC[C@@H](C)CC1OC(=O)Cn1c(-c2ccc(Cl)c(C(F)(F)F)c2)[n+](C)c2ccccc21 (stereo partly shown) | 100 to 1000 nM |
| CC(C)[C@@H]1CC[C@@H](C)CC1OC(=O)Cn1c(-c2ccc(C(C)(C)C)cc2)[n+](C)c2ccccc21 (stereo partly shown) | < 100 nM |
| CC(C)[C@@H]1CC[C@@H](C)CC1OC(=O)Cn1c(-c2ccc(OC(C)(C)C)cc2)[n+](C)c2ccccc21 (stereo partly shown) | < 100 nM |
| CCc1n(CC(=O)OC23CC4CC(CC(C4)C2)C3)c2ccccc2[n+]1C | 1000 to 5000 nM |
